# Tested on: not listed separately
# Test: log P by HPLC on reversed phase columns (Method L0; [a] acidic, [b] neutral range)
# Details: HPLC on reversed phase columns (Method L0)
# Protocol: Calibration was done with straight-chain alkan-2-ones (with 3 to 16 carbon atoms) with known log P values (measurement of log P values using retention times with linear interpolation between successive alkanones). Lambda-max-values were determined using UV-spectra from 200 nm to 400 nm and the peak values of the chromatographic signals.
row,SMILES,log P
1,CC(=O)Nc1ccc(-c2c(C)nn3c(C(C)C)c(C(=O)N[C@H]4CCc5ccccc54)cnc23)cc1 [Examples 327],3.24
2,Cc1nn2c(C(C)C)c(C(=O)N[C@H]3CCc4ccccc43)cnc2c1-c1cn[nH]c1 [Examples 307],2.75
3,CC(C)Sc1nn2c(C(C)C)c(C(=O)N[C@H]3CCOc4ccccc43)cnc2c1-c1cc(Cl)cc(Cl)c1 [Example 198],7
4,Cc1nn2c(C(F)(F)F)c(C(=O)N[C@H]3CCc4ccccc43)cnc2c1-c1cccc(OC(F)(F)F)c1 [Examples 383],5.21
5,Cc1nn2c(C(F)(F)F)c(C(=O)N[C@H]3CCc4ccccc43)cnc2c1-c1cccc(C(F)(F)F)c1 [Examples 384],5.04
6,CC(C)c1c(C(=O)N[C@H]2CCc3ccccc32)cnc2c(-c3cc(Cl)cc(Cl)c3)c(S(=O)(=O)C(C)C)nn12 [Example 214],4.85
7,Cc1nn2c(C(F)(F)F)c(C(=O)N[C@H]3CCc4ccccc43)cnc2c1-c1cccc(F)c1 [Examples 387],4.53
8,Cc1nn2c(C(F)(F)F)c(C(=O)N[C@H]3CCc4ccccc43)cnc2c1-c1cccc(N(C)C)c1 [Examples 385],4.1
9,COCc1cccc(-c2c(C)nn3c(C(F)(F)F)c(C(=O)N[C@H]4CCc5ccccc54)cnc23)c1 [Examples 371],4.32
10,Cc1nn2c(C(C)C)c(C(=O)N[C@H]3CCc4ccccc43)cnc2c1-c1ccc(OCC(F)(F)F)cc1 [Examples 336],4.91

# Same assay, conditions: HPLC on reversed phase columns (Method L0); last column of Table 1, column head not shown
row,SMILES,log P
1,CC(C)c1c(C(=O)N[C@H]2CCc3ccccc32)cnc2c(-c3ccccc3Cl)c(C3CC3)nn12 [Example 414],5.87
2,CC(C)c1c(C(=O)N[C@H]2CCc3ccccc32)cnc2c(-c3cccc(Cl)c3)c(C3CC3)nn12 [Example 411],5.87
3,Cc1nn2c(C(C)C)c(C(=O)N[C@H]3CCc4ccccc43)cnc2c1-n1cccn1 [Example 426],3.29
4,Cc1nn2c(C(F)(F)F)c(C(=O)N[C@H]3CCc4ccccc43)cnc2c1-c1ccccc1Cl [Example 412],4.43
5,CC(C)c1c(C(=O)N[C@H]2CCc3ccccc32)cnc2c(-c3cccc(OC(F)(F)F)c3)c(C3CC3)nn12 [Examples 406],6.11
6,COc1c(C(=O)N[C@H]2CCOc3ccccc32)cnc2c(-c3ccc(F)c(F)c3)c(C)nn12 [Example 519],2.88
7,COc1c(C(=O)N[C@H]2CCc3ccccc32)cnc2c(-c3c(F)cccc3Cl)c(C)nn12 [Example 513],2.96
8,CC(C)c1c(C(=O)N[C@H]2CCc3ccccc32)cnc2c(-c3cccc(F)c3)c(C3CC3)nn12 [Example 416],5.41

# Same assay, conditions: HPLC on reversed phase columns, Method L0, [a] acidic range
row,SMILES,logP (Method L0) [a]
1,Cc1c(C(=O)N[C@H]2CCc3ccccc32)cnc2c(-c3cccc(Cl)c3)c(C(F)(F)F)nn12 [Example 55],4.68
2,Cc1nn2c(C(C)C)c(C(=O)N[C@H]3CCc4ccccc43)cnc2c1-c1ccc(Cl)c(C(=O)NC2CC2)c1 [Example 120],3.78
3,Cc1c(C(=O)N[C@H]2CCCc3ccccc32)cnc2c(-c3cccc(Cl)c3)cnn12 [Example 44],4.33
4,Cc1ccc2c(c1)[C@@H](NC(=O)c1cnc3c(-c4cccc(Cl)c4)c(C)nn3c1C(C)C)CCC2 [Example 109],5.9
5,CC(C)c1c(C(=O)N[C@H]2CCCc3ccccc32)cnc2c(-c3ccc(Cl)cc3)c(Cl)nn12 [Example 76],5.79
6,Cc1c(C(=O)N[C@H]2CCc3ccccc32)cnc2c(-c3ccc(Cl)cc3)c(C(F)(F)F)nn12 [Example 57],4.7
7,CC(C)c1c(C(=O)N[C@H]2CCc3ccccc32)cnc2c(-c3ccc(Cl)cc3)c(C(F)(F)F)nn12 [Example 49],5.48
8,Cc1ccc2c(c1)[C@@H](NC(=O)c1cnc3c(-c4ccc(F)c(F)c4)c(C)nn3c1C(C)C)CCC2 [Example 112],5.55
9,Cc1c(C(=O)N[C@H]2CCCc3ccccc32)cnc2c(-c3cccc(C(F)(F)F)c3)c(Cl)nn12 [Example 69],5.03
10,Cc1c(C(=O)N[C@H]2CCc3ccccc32)cnc2c(-c3cc(Cl)cc(Cl)c3)c(Cl)nn12 [Example 66],5.47
11,CC(C)c1c(C(=O)N[C@H]2CCOc3ccccc32)cnc2c(-c3cnn(CC(F)(F)F)c3)c(C(F)(F)F)nn12 [Example 129],4.21
12,Cc1nn2c(C(C)C)c(C(=O)N[C@H]3CCOc4ccc(Cl)cc43)cnc2c1-c1ccc(Cl)cc1 [Example 106],5.36
13,O=C(N[C@H]1CCc2ccccc21)c1cnc2c(-c3cc(Cl)cc(Cl)c3)cnn2c1 [Example 47],4.74
14,CC(C)c1c(C(=O)N[C@H]2CCc3ccccc32)cnc2c(-c3cnc(F)c(F)c3)c(C(F)(F)F)nn12 [Example 163],4.76
15,Cc1c(C(=O)N[C@H]2CCc3ccccc32)cnc2c(-c3cccc(Cl)c3)c(Cl)nn12 [Example 75],4.6
16,CC(C)c1c(C(=O)N[C@H]2CCc3ccccc32)cnc2c(-c3ccc(F)nc3)c(C(F)(F)F)nn12 [Example 161],4.35
17,CC(C)c1c(C(=O)N[C@H]2CCCc3ccccc32)cnc2c(-c3cccc(Cl)c3)c(C(F)(F)F)nn12 [Example 51],5.74
18,Cc1c(C(=O)N[C@H]2CCCc3ccccc32)cnc2c(-c3cccc(Cl)c3)c(C(F)(F)F)nn12 [Example 86],4.94
19,Cc1c(C(=O)N[C@H]2CCc3ccccc32)cnc2c(-c3cccc(Cl)c3)cnn12 [Example 52],4.04
20,Cc1c(C(=O)N[C@H]2CCc3ccccc32)cnc2c(-c3cc(Cl)cc(Cl)c3)cnn12 [Example 65],4.84
21,O=C(N[C@H]1CCc2ccccc21)c1cnc2c(-c3cccc(C(F)(F)F)c3)c(C(F)(F)F)nn2c1 [Example 87],4.66
22,O=C(N[C@H]1CCc2ccccc21)c1cnc2c(-c3cc(Cl)cc(Cl)c3)c(Cl)nn2c1 [Example 67],5.39
23,Cc1c(C(=O)N[C@H]2CCc3ccccc32)cnc2c(-c3cccc(C(F)(F)F)c3)c(Cl)nn12 [Example 71],4.73
24,CC(C)c1c(C(=O)N[C@H]2CCc3ccccc32)cnc2c(-c3ccc(Cl)nc3)c(C(F)(F)F)nn12 [Example 164],4.7

# Biological target: C. elegans Slo-1a (Caenorhabditis elegans, UniProt Q95V25)
# Test: In vitro assay 1: C. elegans Slo-1a, action at a recombinant C. elegans CHO cell line (membrane potential measurement)
# Details: CHO cells expressing C. elegans Slo-1a; voltage sensitive dye, FLIPR Tetra; negative decadic logarithm of EC50
# Sequence of C. elegans Slo-1a (Q95V25 whole entry): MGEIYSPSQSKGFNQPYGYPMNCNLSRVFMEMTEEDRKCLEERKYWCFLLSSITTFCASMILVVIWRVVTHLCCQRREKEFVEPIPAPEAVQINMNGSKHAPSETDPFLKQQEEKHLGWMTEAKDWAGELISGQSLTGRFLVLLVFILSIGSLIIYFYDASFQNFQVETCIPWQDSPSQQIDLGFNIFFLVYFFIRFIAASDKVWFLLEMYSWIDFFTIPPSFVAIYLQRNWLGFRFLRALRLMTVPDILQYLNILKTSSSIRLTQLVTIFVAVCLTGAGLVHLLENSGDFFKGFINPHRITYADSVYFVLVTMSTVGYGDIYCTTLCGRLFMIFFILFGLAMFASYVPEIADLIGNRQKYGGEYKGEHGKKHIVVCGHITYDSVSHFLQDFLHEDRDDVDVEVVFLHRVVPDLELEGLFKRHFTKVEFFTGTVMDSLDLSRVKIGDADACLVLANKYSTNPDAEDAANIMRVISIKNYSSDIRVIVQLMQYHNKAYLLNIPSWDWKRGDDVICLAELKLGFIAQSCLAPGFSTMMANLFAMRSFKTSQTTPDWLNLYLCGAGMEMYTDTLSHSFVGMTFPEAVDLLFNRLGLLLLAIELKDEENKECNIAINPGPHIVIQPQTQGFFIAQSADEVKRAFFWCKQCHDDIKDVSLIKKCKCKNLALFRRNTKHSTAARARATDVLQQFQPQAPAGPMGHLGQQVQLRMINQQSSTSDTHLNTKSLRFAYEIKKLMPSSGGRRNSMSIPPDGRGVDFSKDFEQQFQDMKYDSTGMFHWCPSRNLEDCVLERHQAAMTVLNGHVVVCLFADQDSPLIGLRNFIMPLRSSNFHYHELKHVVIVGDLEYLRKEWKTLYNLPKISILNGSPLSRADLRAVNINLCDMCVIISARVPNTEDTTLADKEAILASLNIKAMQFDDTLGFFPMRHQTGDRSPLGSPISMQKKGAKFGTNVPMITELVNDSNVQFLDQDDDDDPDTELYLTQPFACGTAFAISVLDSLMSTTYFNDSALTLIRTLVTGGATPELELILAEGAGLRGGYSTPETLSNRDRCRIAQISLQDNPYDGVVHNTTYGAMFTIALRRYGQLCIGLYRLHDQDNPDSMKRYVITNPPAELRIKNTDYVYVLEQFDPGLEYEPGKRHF
row,SMILES,pE50
1,CCc1c(C(=O)N[C@H]2CCOc3ccccc32)cnc2c(-c3c(F)cccc3Cl)c(C)nn12 [Example 479],8.2
2,Cc1nn2c(C3CC3)c(C(=O)N[C@H]3CCOc4ccccc43)cnc2c1-c1cccc2c1CCO2 [Example 510],8.6
3,CC(C)c1c(C(=O)N[C@H]2CCOc3ccccc32)cnc2c(-c3ccc(F)c(F)c3F)c(C(F)F)nn12 [Example 508],8.2
4,Cc1nn2c(N(C)CCN3CCCC3=O)c(C(=O)N[C@H]3CCOc4ccccc43)cnc2c1-c1cc(Cl)cc(Cl)c1 [Example 560],8.2
5,CC(C)c1c(C(=O)N[C@H]2CCOc3ccccc32)cnc2c(-c3c(F)cccc3F)c(C(F)F)nn12 [Example 495],8.3
6,Cc1nn2c(C)c(C(=O)N[C@H]3CCc4ccccc43)cnc2c1-c1cccc(C(F)(F)F)c1 [Example 16],6.7
7,CCc1c(C(=O)N[C@H]2CCOc3ccccc32)cnc2c(-c3c(Cl)cccc3Cl)c(C)nn12 [Example 491],8.3
8,Cc1c(C(=O)N[C@H]2CCc3ccccc32)cnc2c(-c3ccc(Cl)cc3)cnn12 [Example 31],6.7
9,Cc1nn2c(C)c(C(=O)N[C@H]3CCCc4ccccc43)cnc2c1-c1cccc(C(F)(F)F)c1 [Example 15],6.7
10,Cc1nn2c(N3CCOCC3)c(C(=O)N[C@H]3CCOc4ccccc43)cnc2c1-c1ccc(F)c(N(C)C)c1F [Example 543],8.6
11,CC(C)c1c(C(=O)N[C@H]2CCc3ccccc32)cnc2c(-c3cccc(Cl)c3)cnn12 [Example 40],6.5
12,Cc1nn2c(N3CCOCC3)c(C(=O)N[C@H]3CCOc4ccccc43)cnc2c1-c1c(Cl)cccc1Cl [Example 544],8.3
13,CC(C)c1c(C(=O)N[C@H]2CCOc3ccccc32)cnc2c(-c3cccc(Cl)c3Cl)c(C(F)F)nn12 [Example 505],8.5
14,CCc1c(C(=O)N[C@H]2CCOc3ccccc32)cnc2c(-c3ccc(F)c(OC)c3F)c(C)nn12 [Example 496],8.9
15,CC(C)c1c(C(=O)N[C@H]2CCOc3ccccc32)cnc2c(-c3ccc(Cl)cc3Cl)c(C(F)F)nn12 [Example 507],8.1
16,COc1c(F)ccc(-c2c(C)nn3c(N(C)C)c(C(=O)N[C@H]4CCOc5ccccc54)cnc23)c1F [Example 551],8.9
17,COCCOCCOCCN(C)c1c(C(=O)N[C@H]2CCOc3ccccc32)cnc2c(-c3cc(Cl)cc(Cl)c3)c(C)nn12 [Example 561],8.2
18,Cc1nn2c(C)c(C(=O)N[C@H]3CCc4ccccc43)cnc2c1-c1ccccc1Cl [Example 14],7.7
19,Cc1ccccc1-c1c(C)nn2c(N(C)C)c(C(=O)N[C@H]3CCOc4ccccc43)cnc12 [Example 553],8.2

# Reference: patent US11001590B2, “Pyrazolopyrimidine derivatives” (BAYER ANIMAL HEALTH GMBH, priority 2016, dated 2021)
